Measurements taken from ChEMBL document CHEMBL5321294, “Evolution of Slow-Binding Inhibitors Targeting Histone Deacetylase Isoforms” (J Med Chem, 2023).

Experiments:
Histone deacetylase 1 [1] = molecular target: T1, Histone deacetylase 1 (Homo sapiens, UniProt Q13547); conditions: HEK293T
Histone deacetylase 1 [2] = molecular target: T1, Histone deacetylase 1
Histone deacetylase 3 [3] = molecular target: T2, Histone deacetylase 3 (Homo sapiens, UniProt O15379)
in vivo = conditions: C57BL/6, mouse, brain, ip, 25 mg/kg
Description: Half life in C57BL/6 mouse brain at 25 mg/kg, ip

Histone deacetylase 1 [4] = molecular target: T1, Histone deacetylase 1; assay: Binding affinity to HDAC1 (unknown origin) assessed as inhibition constant
Histone deacetylase 3 [5] = molecular target: T2, Histone deacetylase 3; assay: Binding affinity to human HDAC3 using Acetyl-Lys(Ac)-AMC as substrate assessed as binding constant (k-1)
Histone deacetylase 3 [6] = molecular target: T2, Histone deacetylase 3; assay: Binding affinity to HDAC3 (unknown origin) assessed as inhibition constant
Homo sapiens [7] = organism: Homo sapiens; assay: Selectivity ratio of Ki for human HDAC3 using Acetyl-Lys(Ac)-AMC as substrate to Ki for HDAC1 using Acetyl-Lys(Ac)-AMC as substrate
Histone deacetylase 8 [8] = molecular target: T3, Histone deacetylase 8 (Homo sapiens, UniProt Q9BY41); assay: Binding affinity to HDAC8 (unknown origin) assessed as inhibition constant
T3 sequence (Q9BY41 whole entry): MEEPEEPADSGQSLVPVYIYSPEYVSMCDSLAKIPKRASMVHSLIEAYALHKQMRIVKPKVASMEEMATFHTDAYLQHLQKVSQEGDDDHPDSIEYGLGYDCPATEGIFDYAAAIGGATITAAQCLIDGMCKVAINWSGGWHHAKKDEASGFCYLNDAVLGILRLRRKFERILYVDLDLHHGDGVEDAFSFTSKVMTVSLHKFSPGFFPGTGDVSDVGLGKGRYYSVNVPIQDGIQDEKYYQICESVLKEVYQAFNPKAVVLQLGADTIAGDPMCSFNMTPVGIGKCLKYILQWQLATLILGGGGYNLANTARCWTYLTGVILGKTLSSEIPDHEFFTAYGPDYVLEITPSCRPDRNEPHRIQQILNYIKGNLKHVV

Histone deacetylase 2 [9] = molecular target: T4, Histone deacetylase 2 (Homo sapiens, UniProt Q92769); assay: Binding affinity to human HDAC2 assessed as residence time
Histone deacetylase 3 [10] = molecular target: T2, Histone deacetylase 3; assay: Binding affinity to HDAC3 (unknown origin) assessed as binding constant(k2)
Histone deacetylase 8 [11] = molecular target: T3, Histone deacetylase 8; assay: Binding affinity to HDAC8 (unknown origin) assessed as inhibition constant(ki,1)
Histone deacetylase 3 [12] = molecular target: T2, Histone deacetylase 3; assay: Binding affinity to human HDAC3 assessed as residence time
Histone deacetylase 3 [13] = molecular target: T2, Histone deacetylase 3; assay: Binding affinity to HDAC3 (unknown origin) assessed as binding constant(k-2)
Histone deacetylase 1 [14] = molecular target: T1, Histone deacetylase 1; assay: Inhibition of HDAC1 (unknown origin) measured after 1 hrs by fluorescence based assay
Histone deacetylase 2 [15] = molecular target: T4, Histone deacetylase 2; assay: Inhibition of HDAC2 (unknown origin) measured after 24 hrs by fluorescence based assay
Histone deacetylase 1 [16] = molecular target: T1, Histone deacetylase 1; assay: Inhibition of HDAC1 (unknown origin) measured after 24 hrs by fluorescence based assay
Histone deacetylase 3 [17] = molecular target: T2, Histone deacetylase 3; assay: Inhibition of HDAC3 (unknown origin) measured after 24 hrs by fluorescence based assay
Histone deacetylase 3 [18] = molecular target: T2, Histone deacetylase 3; assay: Inhibition of HDAC3 (unknown origin) measured after 1 hrs by fluorescence based assay
Histone deacetylase 2 [19] = molecular target: T4, Histone deacetylase 2; assay: Inhibition of HDAC2 (unknown origin) measured after 1 hrs by fluorescence based assay
[20] = molecular target: T5, Protein deacetylase HDAC6 (Homo sapiens) (UniProt Q9UBN7); assay: Binding affinity to N-terminal GST-tagged human full length HDAC6 expressed in baculovirus infected Sf9 cells using Fluor-de-Lys Green as substrate assessed as dissociation constant (koff) by jump dilution assay
T5 sequence (whole entry): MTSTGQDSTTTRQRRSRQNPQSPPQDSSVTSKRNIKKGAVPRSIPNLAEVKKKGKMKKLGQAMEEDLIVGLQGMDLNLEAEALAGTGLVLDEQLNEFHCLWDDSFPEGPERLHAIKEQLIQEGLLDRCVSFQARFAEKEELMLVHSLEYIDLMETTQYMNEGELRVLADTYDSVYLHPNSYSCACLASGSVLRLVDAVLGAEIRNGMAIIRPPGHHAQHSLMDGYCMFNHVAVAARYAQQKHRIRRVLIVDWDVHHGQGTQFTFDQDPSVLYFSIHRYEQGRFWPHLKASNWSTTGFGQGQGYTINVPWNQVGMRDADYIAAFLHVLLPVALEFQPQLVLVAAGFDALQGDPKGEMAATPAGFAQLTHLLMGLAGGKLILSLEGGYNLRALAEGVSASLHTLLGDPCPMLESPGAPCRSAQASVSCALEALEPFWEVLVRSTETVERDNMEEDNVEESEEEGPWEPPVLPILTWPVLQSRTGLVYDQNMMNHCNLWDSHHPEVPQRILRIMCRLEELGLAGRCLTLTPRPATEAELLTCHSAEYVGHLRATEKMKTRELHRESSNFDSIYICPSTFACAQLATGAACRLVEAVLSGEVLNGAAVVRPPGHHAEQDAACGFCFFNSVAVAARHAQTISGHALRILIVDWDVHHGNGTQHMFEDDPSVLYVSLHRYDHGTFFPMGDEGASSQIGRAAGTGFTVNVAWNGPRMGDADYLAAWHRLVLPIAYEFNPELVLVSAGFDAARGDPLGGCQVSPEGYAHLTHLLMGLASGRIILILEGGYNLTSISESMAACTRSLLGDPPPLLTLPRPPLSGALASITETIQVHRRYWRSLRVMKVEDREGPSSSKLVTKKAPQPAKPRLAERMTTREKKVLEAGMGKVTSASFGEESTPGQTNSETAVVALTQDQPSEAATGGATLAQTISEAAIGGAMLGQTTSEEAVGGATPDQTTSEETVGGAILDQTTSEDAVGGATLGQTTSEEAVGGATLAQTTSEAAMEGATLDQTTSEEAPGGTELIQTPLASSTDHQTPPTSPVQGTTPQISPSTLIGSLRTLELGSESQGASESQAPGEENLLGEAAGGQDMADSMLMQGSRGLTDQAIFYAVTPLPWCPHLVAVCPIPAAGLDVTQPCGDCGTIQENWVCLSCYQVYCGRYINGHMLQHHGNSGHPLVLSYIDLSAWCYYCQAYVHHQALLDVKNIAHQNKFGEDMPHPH

[21] = molecular target: T5, Protein deacetylase HDAC6 (Homo sapiens); assay: Binding affinity to N-terminal GST-tagged human full length HDAC6 expressed in baculovirus infected Sf9 cells using Fluor-de-Lys Green as substrate assessed as residence time
[22] = molecular target: T5, Protein deacetylase HDAC6 (Homo sapiens); assay: Binding affinity to N-terminal GST-tagged human full length HDAC6 expressed in baculovirus infected Sf9 cells using Fluor-de-Lys Green as substrate assessed as association constant (kon)
[23] = molecular target: T6, Protein deacetylase HDAC6 (Homo sapiens, UniProt Q9UBN7); assay: Inhibition of N-terminal GST-tagged human full length HDAC6 expressed in baculovirus infected Sf9 cells using Fluor-de-Lys Green as substrate
T6 sequence (Q9UBN7 whole entry): T5 sequence (whole entry)

[24] = molecular target: T6, Protein deacetylase HDAC6; assay: Binding affinity to N-terminal GST-tagged human full length HDAC6 expressed in baculovirus infected Sf9 cells using Fluor-de-Lys Green as substrate assessed as inhibition constant
[25] = molecular target: T5, Protein deacetylase HDAC6 (Homo sapiens); assay: Binding affinity to N-terminal GST-tagged human full length HDAC6 expressed in baculovirus infected Sf9 cells using Fluor-de-Lys Green as substrate assessed as residence time by jump dilution assay
[26] = molecular target: T5, Protein deacetylase HDAC6 (Homo sapiens); assay: Binding affinity to N-terminal GST-tagged human full length HDAC6 expressed in baculovirus infected Sf9 cells using Fluor-de-Lys Green as substrate assessed as dissociation constant (koff)
Histone deacetylase 3 [27] = molecular target: T2, Histone deacetylase 3; assay: Binding affinity to human HDAC3 assessed as binding rate constant (Kon)
Histone deacetylase 1 [28] = molecular target: T1, Histone deacetylase 1; assay: Binding affinity to human HDAC1 assessed as half life
Homo sapiens [29] = organism: Homo sapiens; assay: Selectivity index, ratio of IC50 for Inhibition of human HDAC3 to IC50 for Inhibition of human HDAC1
Homo sapiens [30] = organism: Homo sapiens; assay: Selectivity index, ratio of IC50 for Inhibition of human HDAC3 to Inhibition of human IC50 for HDAC2
Histone deacetylase 3 [31] = molecular target: T2, Histone deacetylase 3; assay: Binding affinity to human HDAC3 assessed as dissociation rate constant (Koff)
Histone deacetylase 2 [32] = molecular target: T4, Histone deacetylase 2; assay: Binding affinity to human HDAC2 assessed as half life
Histone deacetylase 3 [33] = molecular target: T2, Histone deacetylase 3; assay: Binding affinity to human HDAC3 assessed as half life

T2 sequence (O15379 whole entry): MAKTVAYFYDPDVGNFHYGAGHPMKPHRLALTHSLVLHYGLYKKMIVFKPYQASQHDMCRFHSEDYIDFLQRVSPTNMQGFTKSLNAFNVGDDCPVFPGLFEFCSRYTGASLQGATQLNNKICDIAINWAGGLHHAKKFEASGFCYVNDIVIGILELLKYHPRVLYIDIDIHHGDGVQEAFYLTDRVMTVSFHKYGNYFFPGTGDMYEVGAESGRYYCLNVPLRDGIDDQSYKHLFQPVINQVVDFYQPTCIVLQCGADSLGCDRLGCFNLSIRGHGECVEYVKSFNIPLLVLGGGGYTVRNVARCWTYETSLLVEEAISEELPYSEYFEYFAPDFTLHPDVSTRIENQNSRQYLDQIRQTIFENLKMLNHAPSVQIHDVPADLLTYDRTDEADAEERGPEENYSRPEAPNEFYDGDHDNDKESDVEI
T1 sequence (Q13547 whole entry): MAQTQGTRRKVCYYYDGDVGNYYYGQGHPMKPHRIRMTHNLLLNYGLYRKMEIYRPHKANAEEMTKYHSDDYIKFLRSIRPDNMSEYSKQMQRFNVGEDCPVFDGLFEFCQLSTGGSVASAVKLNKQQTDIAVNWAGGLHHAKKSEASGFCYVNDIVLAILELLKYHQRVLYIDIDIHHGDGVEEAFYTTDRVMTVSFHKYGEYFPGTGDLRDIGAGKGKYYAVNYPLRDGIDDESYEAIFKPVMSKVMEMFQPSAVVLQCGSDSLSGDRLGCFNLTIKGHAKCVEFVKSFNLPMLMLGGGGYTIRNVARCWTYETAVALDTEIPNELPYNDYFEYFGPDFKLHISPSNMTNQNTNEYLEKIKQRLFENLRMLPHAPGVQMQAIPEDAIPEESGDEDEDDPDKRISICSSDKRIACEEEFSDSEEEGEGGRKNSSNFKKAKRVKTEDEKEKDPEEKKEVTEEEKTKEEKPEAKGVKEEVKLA
T4 sequence (Q92769 whole entry): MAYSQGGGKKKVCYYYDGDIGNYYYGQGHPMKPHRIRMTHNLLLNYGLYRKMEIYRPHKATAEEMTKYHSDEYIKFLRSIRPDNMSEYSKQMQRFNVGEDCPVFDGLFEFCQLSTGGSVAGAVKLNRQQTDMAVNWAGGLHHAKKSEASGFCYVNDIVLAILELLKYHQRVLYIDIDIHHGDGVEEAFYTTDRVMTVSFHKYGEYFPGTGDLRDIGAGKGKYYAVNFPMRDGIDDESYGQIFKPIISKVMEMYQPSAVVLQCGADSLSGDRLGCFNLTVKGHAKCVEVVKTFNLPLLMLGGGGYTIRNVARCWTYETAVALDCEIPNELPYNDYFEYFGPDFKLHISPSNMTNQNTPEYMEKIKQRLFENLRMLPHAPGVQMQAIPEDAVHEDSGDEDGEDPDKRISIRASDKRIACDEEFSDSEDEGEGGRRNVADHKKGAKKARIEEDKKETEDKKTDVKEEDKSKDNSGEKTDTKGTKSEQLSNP

Molecule `Cc1ccc(NC(=O)CCCCCC(=O)Nc2ccccc2N)cc1` has a T1/2 (Histone deacetylase 1 [1]) of 1.5 h.

With `O=C(CCCCCCC(=O)Nc1ccccc1)NO` [VORINOSTAT] the T1/2 (Histone deacetylase 1 [2]) was less than 4 min, the T1/2 (Histone deacetylase 3 [3]) was less than 4 min and the half-life (in vivo) was 0.44 h.

In the case of `Nc1ccc(-c2ccccc2)cc1NC(=O)CCCCCC(=O)Nc1ccccc1`, the Ki (Histone deacetylase 1 [4]) is reported as 0.007 µM, the K (Histone deacetylase 3 [5]) is reported as 0.002 min⁻¹ and the Ki (Histone deacetylase 3 [6]) is reported as 2.5 µM. The Ratio Ki (Homo sapiens [7]) was 350.

`O=C(CCCCCCC(=O)C(F)(F)F)Nc1ccccc1` gave a Ki (Histone deacetylase 8 [8]) of roughly 0.033 µM, a TIME (Histone deacetylase 2 [9]) of 2.08 h and a K (Histone deacetylase 3 [10]) of 0.24 min⁻¹. For the same molecule, the Ki (Histone deacetylase 8 [11]) was 7.3 µM, the TIME (Histone deacetylase 3 [12]) was 3.33 h and the K (Histone deacetylase 3 [13]) was 5 10^-3/min.

For `NC/C(=C\C(=O)c1ccccc1)c1ccccc1`, the IC50 (Histone deacetylase 1 [14]) was 5.96 µM, the IC50 (Histone deacetylase 2 [15]) was 26.4 µM and the IC50 (Histone deacetylase 1 [16]) was 8.65 µM. It also gave an IC50 (Histone deacetylase 3 [17]) greater than 50 µM, an IC50 (Histone deacetylase 3 [18]) greater than 50 µM and an IC50 (Histone deacetylase 2 [19]) of 19.6 µM.

With `FC(F)c1nnc(-c2ccc(Cn3cc(-c4ccc(NC5N=CCN5)cc4)nn3)cc2)o1` (configuration not stated) the K [20] was 3.3 10^-3/min, the TIME [21] was 3.6 h and the K [22] was 9.6 10^5/min/M. For the same molecule, the IC50 [23] was 0.0077 µM, the Ki [24] was 0.0048 µM and the TIME [25] was 5.1 h. For the same molecule, the K [26] was 4.6 10^-3/min.

Molecule `CCC(=O)CCCCC[C@@H]1NC(=O)[C@H]2CCCCN2C(=O)[C@H]([C@@H](C)CC)NC(=O)[C@H](Cc2c[nH]c3ccccc23)NC1=O` has a Ki (Histone deacetylase 1 [4]) of 0.4 µM and a Ki (Histone deacetylase 3 [6]) of 0.6 µM.

`O=C(/C=C(\CO)c1ccccc1)c1ccccc1` showed an IC50 (Histone deacetylase 1 [14]) of 3.68 µM, an IC50 (Histone deacetylase 3 [17]) of roughly 50 µM and an IC50 (Histone deacetylase 3 [18]) of roughly 50 µM. For the same molecule, the IC50 (Histone deacetylase 2 [19]) was 9.19 µM.

In the case of `CC(=O)Nc1ccc(C(=O)Nc2cc(-c3ccncc3)ccc2N)cc1`, the K (Histone deacetylase 3 [27]) is reported as 16.7 M⁻¹ s⁻¹, the T1/2 (Histone deacetylase 1 [28]) is reported as 7.17 h and the Ratio IC50 (Homo sapiens [29]) is reported as 1040. The Ratio IC50 (Homo sapiens [30]) was 100, the K (Histone deacetylase 3 [31]) was 0.002 min⁻¹ and the T1/2 (Histone deacetylase 2 [32]) was 30 h. It also gave a TIME (Histone deacetylase 2 [9]) of 41.7 h, a T1/2 (Histone deacetylase 3 [33]) of 11.5 h and a TIME (Histone deacetylase 3 [12]) of 10.4 h.
